Measured values reported in ChEMBL document CHEMBL1201862, “PubChem BioAssay data set” (2004).
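Grown in 96-well plates, cells were treated for 48 hours with each compound at five concentrations. Insufficient inhibition: endpoint recorded as highest concentration tested. Abbreviation: GI50, concentration required for 50% inhibition of growth.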 Calls of active or inactive are those of the source. Cut-off read from the data, not from the text of the source: active = GI50 up to about 1.1 µM and inactive = higher.

What was measured:
Assay in all cases: NCI anticancer screen, dose series, 48 h
MOLT-4 = test system: MOLT-4
HT-29 = test system: HT-29
SF-268 = test system: SF-268
SW-620 = test system: SW-620
UACC-62 = test system: UACC-62
IGROV-1 = test system: IGROV-1
SF-295 = test system: SF-295
PC-3 = test system: PC-3
COLO 205 = test system: COLO 205
NCI/ADR-RES = test system: NCI/ADR-RES
HCT-116 = test system: HCT-116
MCF7 = test system: MCF7
SK-MEL-28 = test system: SK-MEL-28
NCI-H226 = test system: NCI-H226
HOP-92 = test system: HOP-92
RXF 393 = test system: RXF 393
M14 = test system: M14
UO-31 = test system: UO-31
KM12 = test system: KM12

Measured: GI50

CC(=O)OC1C(COC(=O)c2ccccc2)OC(Nc2ncc(-c3ccc(Br)cc3)s2)C(OC(=O)c2ccccc2)C1OC(=O)c1ccccc1 (stereo not drawn)
inactive: MOLT-4 > 100 µM | HT-29 > 100 µM | SF-268 > 100 µM | SW-620 > 100 µM | UACC-62 > 100 µM | IGROV-1 > 100 µM | SF-295 > 100 µM | PC-3 > 100 µM | COLO 205 > 100 µM | NCI/ADR-RES > 10 µM | HCT-116 > 100 µM | MCF7 > 100 µM | SK-MEL-28 > 100 µM | NCI-H226 > 100 µM | HOP-92 93.1 µM | RXF 393 > 100 µM | M14 > 100 µM | UO-31 > 100 µM

COC(=O)c1c(OC(C)=O)ccc2c1c1c(OC(C)=O)c3ccccc3c(OC(C)=O)c1n2C
inactive: MOLT-4 15.4 µM | HT-29 38.4 µM | SF-268 22.6 µM | UACC-62 17.9 µM | KM12 20.5 µM | IGROV-1 7.87 µM | SF-295 21.2 µM | PC-3 30.4 µM | COLO 205 29.2 µM | NCI/ADR-RES 30.1 µM | HCT-116 19.1 µM | MCF7 28.7 µM | SK-MEL-28 53.7 µM | NCI-H226 47.1 µM | HOP-92 4.39 µM | RXF 393 29.5 µM | M14 27.6 µM | UO-31 25.1 µM

COc1cccc(C=C(C#N)C#N)c1OC
inactive: MOLT-4 > 100 µM | HT-29 > 100 µM | SF-268 > 100 µM | SW-620 > 100 µM | UACC-62 > 100 µM | KM12 > 100 µM | IGROV-1 > 100 µM | SF-295 > 100 µM | PC-3 > 100 µM | COLO 205 > 100 µM | NCI/ADR-RES > 100 µM | HCT-116 > 100 µM | MCF7 > 100 µM | SK-MEL-28 > 100 µM | NCI-H226 > 100 µM | HOP-92 > 100 µM | RXF 393 > 100 µM | M14 > 100 µM | UO-31 > 100 µM

N#CCCC(CCC#N)(CCC#N)NO
inactive: HT-29 > 100 µM | SF-268 > 100 µM | SW-620 > 100 µM | UACC-62 > 100 µM | KM12 > 100 µM | IGROV-1 > 100 µM | SF-295 > 100 µM | PC-3 > 100 µM | COLO 205 > 100 µM | NCI/ADR-RES > 100 µM | HCT-116 > 100 µM | MCF7 > 100 µM | NCI-H226 > 100 µM | HOP-92 > 100 µM | RXF 393 > 100 µM | M14 > 100 µM | UO-31 > 100 µM

CC(=O)Oc1ccc2c(c1)oc1c3ccc(OC(C)=O)cc3n(C)c(=O)c21
inactive: MOLT-4 25.1 µM | HT-29 31.8 µM | SF-268 12.5 µM | SW-620 26.4 µM | UACC-62 34.8 µM | KM12 3.78 µM | IGROV-1 29.9 µM | SF-295 36.7 µM | PC-3 22.1 µM | COLO 205 21.6 µM | NCI/ADR-RES 15.7 µM | HCT-116 20.9 µM | MCF7 35.6 µM | SK-MEL-28 16.3 µM | NCI-H226 10.2 µM | HOP-92 28.7 µM | RXF 393 38.7 µM | M14 10.3 µM | UO-31 50.1 µM

N#CSC1CCCCNC1=O (stereo not drawn)
inactive: MOLT-4 2.48 µM | HT-29 11.5 µM | SF-268 11.8 µM | UACC-62 12.3 µM | KM12 14.1 µM | SF-295 14.8 µM | PC-3 13.6 µM | COLO 205 15.5 µM | NCI/ADR-RES 12.8 µM | HCT-116 8.45 µM | MCF7 4.07 µM | SK-MEL-28 13.4 µM | NCI-H226 12 µM | HOP-92 2.78 µM | RXF 393 13.7 µM | M14 16.7 µM | UO-31 15.1 µM
